Experimental data as given in patent US12030883B2, “Hetero-tricyclic compounds as inhibitors of KRAS” (Incyte Corporation, priority 2021, dated 2024).

What was measured:
KRAS G12D = KRAS G12D (Homo sapiens, UniProt P01116, G12D); test: GDP-GTP exchange assay, KRAS G12D (bodipy-GDP/GppNHp, SOS1); type: biochemical; conditions: bodipy-loaded KRAS G12D 2.5 nM, 4 hours pre-incubation with inhibitor, SOS1 150 nM, GppNHp 500 uM; read-out: G12D_exchange (KRAS_G12D exchange assay IC50)
Experimental: (§1) The inhibitor potency of the exemplified compounds was determined in a fluorescence based guanine nucleotide exchange assay, which measures the exchange of bodipy-GDP (fluorescently labeled GDP) for GppNHp (Non-hydrolyzable GTP analog) to generate the active state of KRAS in the presence of SOS1 (guanine nucleotide exchange factor). Inhibitors were serially diluted in DMSO and a volume of 0.1 μL was transferred to the wells of a black low volume 384-well plate. Five μL/well volume of bodipy-loaded KRAS G12D or G12V diluted to a final concentration of 2.5 nM in assay buffer (25 mM Hepes pH 7.5, 50 mM NaCl, 10 mM MgCl2 and 0.01% Brij-35) was added to the plate and pre-incubated with inhibitor for 4 hours (G12D) or 3 hours (G12V) at ambient temperature. A cyclic peptide described to selectively bind G12D mutant (Sakamoto et al., BBRC 484.3 (2017), 605-611) or internal compounds with confirmed binding were used as positive controls in the assay plates. The exchange was initiated by the addition of a 5 μL/well volume containing 1 mM GppNHp and 300 nM SOS1 in assay buffer. The 10 μL/well reaction concentration of the bodipy-loaded KRAS G12D or G12V, GppNHp, and SOS1 were 2.5 nM, 500 uM, and 150 nM, respectively.
(§2) Either GraphPad prism or XLfit was used to analyze the data. The IC50 values were derived by fitting the data to a four parameter logistic equation producing a sigmoidal dose-response curve with a variable Hill coefficient. Prism equation: Y=Bottom+(Top−Bottom)/(1+10^((LogIC50-X)*Hill slope)); XLfit equation: Y=(A+((B−A)/(1+((X/C)^D)))) where X is the logarithm of inhibitor concentration and Y is the response.

KRAS G12V = KRAS G12V (Homo sapiens, UniProt P01116, G12V); test: GDP-GTP exchange assay, KRAS G12V (bodipy-GDP/GppNHp, SOS1); type: biochemical; conditions: bodipy-loaded KRAS G12V 2.5 nM, 3 hours pre-incubation with inhibitor, SOS1 150 nM, GppNHp 500 uM; read-out: G12V_exchange (KRAS_G12V exchange assay IC50)
Experimental: as §1, §2

KRAS G12D, sequence (P01116 1-188 isoform P01116-2 G12D): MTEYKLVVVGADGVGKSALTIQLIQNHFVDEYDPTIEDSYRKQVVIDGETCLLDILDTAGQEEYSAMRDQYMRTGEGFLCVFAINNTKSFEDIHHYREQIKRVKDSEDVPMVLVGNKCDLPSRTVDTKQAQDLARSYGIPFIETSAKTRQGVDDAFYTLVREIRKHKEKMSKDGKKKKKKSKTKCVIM
KRAS G12V, sequence (P01116 1-188 isoform P01116-2 G12V): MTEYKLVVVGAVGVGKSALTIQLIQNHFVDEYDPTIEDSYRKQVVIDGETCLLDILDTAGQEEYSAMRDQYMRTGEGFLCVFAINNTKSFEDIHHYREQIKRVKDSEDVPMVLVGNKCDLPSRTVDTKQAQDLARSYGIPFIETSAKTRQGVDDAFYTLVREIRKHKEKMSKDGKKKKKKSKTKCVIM

SMILES	IC50 (KRAS G12D)	IC50 (KRAS G12V)
N#CCCc1cc2c3c(cnc2c(F)c1-c1cc(O)cc2ccccc12)N(c1ccccc1)C(=O)CN3[C@@H]1[C@@H]2CN[C@H]1C2 (relative stereo) [Example 17, 3-(1-((endo)-2-Azabicyclo[2.1.1]hexan-5-yl)-7-fluoro-8-(3-hydroxynaphthalen-1-yl)-3-oxo-4-phenyl-1,2,3,4-tetrahydropyrazino[2,3-c]quinolin-9-yl)propanenitrile]	100 to 1000 nM	100 to 1000 nM
C[C@H](Oc1nc2c(F)c(-c3c[nH]c4ccccc34)c(CCC#N)cc2c2c1NC(=O)CN2C1C2CNC1C2)[C@@H]1CCCN1C (single isomer, unassigned) [Example 1b]	100 to 1000 nM	100 to 1000 nM
C[C@H](Oc1nc2c(F)c(-c3cccc(Cl)c3Cl)c(CCC#N)cc2c2c1NC(=O)CN2C1C2CNC1C2)[C@@H]1CCCN1C (single isomer, unassigned) [Example 2a]	100 to 1000 nM	100 to 1000 nM
C[C@H](Oc1nc2c(F)c(-c3cccc(Cl)c3Cl)c(CCC#N)cc2c2c1NC(=O)CN2C1C2CNC1C2)[C@@H]1CCCN1C (single isomer, unassigned) [Example 2c]	100 to 1000 nM	100 to 1000 nM
C[C@H](Oc1nc2c(F)c(-c3cc(O)cc4ccc(F)cc34)c(CCC#N)cc2c2c1NC(=O)CN2C1C2CNC1C2)[C@@H]1CCCN1C (single isomer, unassigned) [Example 4a]	1000 to 5000 nM	1000 to 5000 nM
CNC(=O)c1ccc(-c2nc3c(F)c(-c4cc(O)cc5ccccc45)c(CCC#N)cc3c3c2NC(=O)CN3C2C3CNC2C3)cn1 (single isomer, unassigned) [Example 5b, 5-(1-((endo)-2-Azabicyclo[2.1.1]hexan-5-yl)-9-(2-cyanoethyl)-7-fluoro-8-(3-hydroxynaphthalen-1-yl)-3-oxo-1,2,3,4-tetrahydropyrazino[2,3-c]quinolin-5-yl)-N-methylpicolinamide]	1000 to 5000 nM	1000 to 5000 nM
N#CCCc1cc2c3c(c(Cc4ccccc4)nc2c(F)c1-c1cc(O)cc2ccccc12)NC(=O)CN3C1C2CNC1C2 (single isomer, unassigned) [Example 8a, 3-(5-Benzyl-1-((endo)-2-azabicyclo[2.1.1]hexan-5-yl)-7-fluoro-8-(3-hydroxynaphthalen-1-yl)-3-oxo-1,2,3,4-tetrahydropyrazino[2,3-c]quinolin-9-yl)propanenitrile]	100 to 1000 nM	1000 to 5000 nM
N#CCCc1cc2c3c(c(Cc4ccccc4)nc2c(F)c1-c1cc(O)cc2ccccc12)NC(=O)CN3C1C2CNC1C2 (single isomer, unassigned) [Example 8b, 3-(5-Benzyl-1-((endo)-2-azabicyclo[2.1.1]hexan-5-yl)-7-fluoro-8-(3-hydroxynaphthalen-1-yl)-3-oxo-1,2,3,4-tetrahydropyrazino[2,3-c]quinolin-9-yl)propanenitrile]	5000 to 10000 nM	5000 to 10000 nM
N#CCCc1cc2c3c(c(OC[C@@]45CCCN4C[C@H](F)C5)nc2c(F)c1-c1cc(O)cc2ccccc12)NC(=O)CN3C1C2CNC1C2 (single isomer, unassigned) [Example 10c]	100 to 1000 nM	100 to 1000 nM
N#CCCc1cc2c3c(c(OC[C@@]45CCCN4C[C@H](F)C5)nc2c(F)c1-c1cc(O)cc2ccccc12)NC(=O)CN3C1C2CNC1C2 (single isomer, unassigned) [Example 10d]	1000 to 5000 nM	5000 to 10000 nM
C[C@@H](CN(C)C)Oc1nc2c(F)c(-c3cc(O)cc4ccccc34)c(CCC#N)cc2c2c1NC(=O)CN2C1C2CNC1C2 (single isomer, unassigned) [Example 11a]	5000 to 10000 nM	5000 to 10000 nM
CN1CCC[C@H]1COc1nc2c(F)c(-c3cc(O)cc4ccccc34)c(CCC#N)cc2c2c1CCCN2C1C2CNC1C2 (single isomer, unassigned) [Example 12a]	1000 to 5000 nM	5000 to 10000 nM
CN(C)C1CN(c2nc3c(F)c(-c4cc(O)cc5ccccc45)c(CCC#N)cc3c3c2NC(=O)CN3C2C3CNC2C3)C1 (single isomer, unassigned) [Example 13b, 3-(1-((endo)-2-Azabicyclo[2.1.1]hexan-5-yl)-5-(3-(dimethylamino)azetidin-1-yl)-7-fluoro-8-(3-hydroxynaphthalen-1-yl)-3-oxo-1,2,3,4-tetrahydropyrazino[2,3-c]quinolin-9-yl)propanenitrile]	100 to 1000 nM	100 to 1000 nM
CC1Cc2c(OC[C@@H]3CCCN3C)nc3c(F)c(-c4cc(O)cc5ccccc45)c(CCC#N)cc3c2N(C2C3CNC2C3)C1 (single isomer, unassigned) [Example 14c]	1000 to 5000 nM	5000 to 10000 nM

Results, then the compound that gave them:

IC50 (KRAS G12D)	IC50 (KRAS G12V)	SMILES
100 to 1000 nM	100 to 1000 nM	C[C@H](Oc1nc2c(F)c(-c3cccc4ccc(F)cc34)c(CCC#N)cc2c2c1NC(=O)CN2C1C2CNC1C2)[C@@H]1CCCN1C (single isomer, unassigned) [Example 3b]
100 to 1000 nM	100 to 1000 nM	C[C@H](Oc1nc2c(F)c(-c3cc(O)cc4ccc(F)cc34)c(CCC#N)cc2c2c1NC(=O)CN2C1C2CNC1C2)[C@@H]1CCCN1C (single isomer, unassigned) [Example 4b]
1000 to 5000 nM	1000 to 5000 nM	N#CCCc1cc2c3c(c(-c4ccc5cccnc5c4)nc2c(F)c1-c1cc(O)cc2ccccc12)NC(=O)CN3C1C2CNC1C2 (single isomer, unassigned) [Example 6b, 3-(1-((endo)-2-Azabicyclo[2.1.1]hexan-5-yl)-7-fluoro-8-(3-hydroxynaphthalen-1-yl)-3-oxo-5-(quinolin-7-yl)-1,2,3,4-tetrahydropyrazino[2,3-c]quinolin-9-yl)propanenitrile]
100 to 1000 nM	1000 to 5000 nM	Cn1cnc(-c2nc3c(F)c(-c4cc(O)cc5ccccc45)c(CCC#N)cc3c3c2NC(=O)CN3C2C3CNC2C3)c1 (single isomer, unassigned) [Example 7b, 3-(1-((endo)-2-Azabicyclo[2.1.1]hexan-5-yl)-7-fluoro-8-(3-hydroxynaphthalen-1-yl)-5-(1-methyl-1H-imidazol-4-yl)-3-oxo-1,2,3,4-tetrahydropyrazino[2,3-c]quinolin-9-yl)propanenitrile]
1000 to 5000 nM	1000 to 5000 nM	CNC(=O)c1cccc(-c2nc3c(F)c(-c4cc(O)cc5ccccc45)c(CCC#N)cc3c3c2NC(=O)CN3C2C3CNC2C3)c1 (single isomer, unassigned) [Example 9b, 3-(1-((endo)-2-Azabicyclo[2.1.1]hexan-5-yl)-9-(2-cyanoethyl)-7-fluoro-8-(3-hydroxynaphthalen-1-yl)-3-oxo-1,2,3,4-tetrahydropyrazino[2,3-c]quinolin-5-yl)-N-methylbenzamide]
5000 to 10000 nM	5000 to 10000 nM	C[C@@H](CN(C)C)Oc1nc2c(F)c(-c3cc(O)cc4ccccc34)c(CCC#N)cc2c2c1NC(=O)CN2C1C2CNC1C2 (single isomer, unassigned) [Example 11b]
100 to 1000 nM	100 to 1000 nM	C[C@@H](CN(C)C)Oc1nc2c(F)c(-c3cc(O)cc4ccccc34)c(CCC#N)cc2c2c1NC(=O)CN2C1C2CNC1C2 (single isomer, unassigned) [Example 11d]
1000 to 5000 nM	1000 to 5000 nM	CC1Cc2c(OC[C@@H]3CCCN3C)nc3c(F)c(-c4cc(O)cc5ccccc45)c(CCC#N)cc3c2N(C2C3CNC2C3)C1 (single isomer, unassigned) [Example 14d]
1000 to 5000 nM	1000 to 5000 nM	C[C@H](Oc1nc2c(F)c(-c3cc(O)cc4ccccc34)c(CCC#N)cc2c2c1CCCN2C1C2CNC1C2)[C@@H]1CCCN1C (single isomer, unassigned) [Example 15a]
5000 to 10000 nM	5000 to 10000 nM	C[C@@H](CN(C)C)Oc1nc2c(F)c(-c3cc(O)cc4ccccc34)c(CCC#N)cc2c2c1CCCN2C1C2CNC1C2 (single isomer, unassigned) [Example 16a]
≤ 100 nM	100 to 1000 nM	N#CCCc1cc2c3c(cnc2c(F)c1-c1cc(O)cc2ccccc12)N(CCC1CCNCC1)C(=O)CN3C1C2CNC1C2 (single isomer, unassigned) [Example 18a, 3-(1-((endo)-2-Azabicyclo[2.1.1]hexan-5-yl)-7-fluoro-8-(3-hydroxynaphthalen-1-yl)-3-oxo-4-(2-(piperidin-4-yl)ethyl)-1,2,3,4-tetrahydropyrazino[2,3-c]quinolin-9-yl)propanenitrile]
≤ 100 nM	100 to 1000 nM	N#CCCc1cc2c3c(cnc2c(F)c1-c1cc(O)cc2ccccc12)N(CC(N)=O)C(=O)CN3C1C2CNC1C2 (single isomer, unassigned) [Example 19a, 2-(1-((endo)-2-Azabicyclo[2.1.1]hexan-5-yl)-9-(2-cyanoethyl)-7-fluoro-8-(3-hydroxynaphthalen-1-yl)-3-oxo-2,3-dihydropyrazino[2,3-c]quinolin-4(1H)-yl)acetamide]
